Patent publication US7879835B2 (Korea Research Institute of Chemical Technology, priority 2004, dated 2011)

Assays:
[1] = test system: osteoclast (TRAP-positive multinuclear cell) formation; assay: Inhibitory effect on osteoclast formation (TRAP staining); format: cell-based, mice; details: 8 days culture with M-CSF and RANKL, compared to control
Description: The inhibitory activities of the alpha-arylmethoxyacrylate derivatives prepared in the above Examples on the proliferation of osteoclasts were examined as follows.
First, a bone marrow sample containing osteoclast pregenitor cells was isolated as follows. After sacrificing 7 to 9 week-old female mice by cervical dislocation, femur and tibia were excised aseptically while removing soft tissues attached thereto, After cutting both ends of the long bones, 1 ml of an enzyme solution containing 0.1% collagenase (Gibco), 0.05% trypsin and 0.5 mM EDTA (Gibco) was injected into the bone marrow cavity at one end using a syringe with a 26-gauge needle, and the bone marrow was then collected. After stirring the recovered bone marrow for 30 min, the precipitated bone marrow cells were collected, and cultured in α-minimum essential medium (α-MEM) supplemented with 10% FBS for 24 hrs. Then, non-adherent cells, which are osteoclast pregenitors, were aliquoted onto a culture plate at a density of 2×10^5 cells per well, and cultured for 8 days in α-MEM supplemented with 20 ng/ml of macrophage-colony stimulating factor (M-CSF, Peprotech, USA), 30 ng/ml RANKL (Peprotech, USA), and 0.3, 1.0 or 3 μM of the compounds of the Examples. Control cells were cultured at the same condition except not adding the compounds of the Examples.
After cell culture for 8 days, the adherent cells were washed with PBS and fixed with citrate-acetate-formaldehyde for 5 min. The fixed cells were incubated at 37° C. for 1 hr in acetate buffer (pH 5.0) containing naphthol AS-BI phosphate, fast Garnet GBC solution and 7 mM tartrate buffer (pH 5.0) to conduct TRAP (tartrate-resistant acid phosphatase) staining.

osteoclasts = assay: Inhibitory effect on resorption activity of osteoclast (resorption pit area on calcium phosphate-coated plate); format: cell-based, mice; details: compared to control
Description: After finishing culture, the plate was washed with distilled water, and 50 μl/well of 5% sodium hypochlorite was added to the plate. The plate was let alone for 5 min, washed again with distilled water to remove the adherent cells, and dried at room temperature. Then, the area of formed resorption pits was calculated by means of Image Pro Plus software (Media Cybernetics Ver. 3.0).

MG-63 cells = assay: Cytotoxicity test against osteoblast (MTT); format: cell-based, human
Description: (§1) In order examine the toxicities of the compounds of the Examples against osteoclast pregenitors, pregenitor cells were aliquotted onto a 96-well microplate at a density of 2×10^5 cells per well, treated with 2, 4 and 8 μM of the test compounds, respectively, and cultured for 48 hrs in α-MEM supplemented with 20 ng/ml of M-CSF (Peprotech, USA) using 37° C. incubator (5% CO2). At 3 hrs before the culture was finished, 50 μl of MTT (3-(4,5-dimethylthiazol-2-yl)-2,5-diphenyltetrazolium bromide) solution (50 μg/ml) was added to each well. Upon completion of the cell culture, the supernatant was removed, and the precipitated dye was reacted with 100 μl of isopropanol/0.04 N HCl at room temperature for 30 min to dissolve it. The absorbances of the wells were measured at 550 nm, and the relative absorbance of each well relative to that of the control (set as 100) is shown in Table 6.
In order to examine the toxicity of the compounds of the Examples against osteoblasts, human osteosarcoma-derived cell line, MG-63 (ATCC No. CRL-1427) cells were treated with 0.1, 0.3, 1.0 and 3.0 μM of the compounds of the Examples, and cultured in DMEM supplemented with 10% FBS (fetal bovine serum).

[2] = test system: osteoclast pregenitor cells; assay: Cytotoxicity against osteoclast pregenitor (MTT); format: cell-based, mice; details: 48 hrs, absorbance at 550 nm
Description: as §1

Row | Compound | Osteoclast formation inhibitory effects (%) ([1]; 0.3 μM) | Osteoclast formation inhibitory effects (%) ([1]; 1.0 μM) | Osteoclast formation inhibitory effects (%) ([1]; 3.0 μM) | Reduction (%) of the resorption pit area of osteoclasts (osteoclasts; 1 uM) [%] | Reduction (%) of the resorption pit area of osteoclasts (osteoclasts; 3 uM) [%] | relative absorbance relative to that of the control (set as 100), MTT (MG-63 cells; 0.33 uM) | relative absorbance relative to that of the control (set as 100), MTT (MG-63 cells; 1 uM) | relative absorbance relative to that of the control (set as 100), MTT (MG-63 cells; 3 uM) | Reduction (%) of the resorption pit area of osteoclasts (osteoclasts; 0.3 uM) [%] | relative absorbance relative to that of the control (set as 100), MTT ([2]; 2 uM) | relative absorbance relative to that of the control (set as 100), MTT ([2]; 4 uM) | relative absorbance relative to that of the control (set as 100), MTT ([2]; 8 uM) | relative absorbance relative to that of the control (set as 100), MTT (MG-63 cells; 0.11 uM)
1 | CO/C=C(/C(=O)OC)c1ccccc1CON=C(C)c1cccc(OCCN2CCOCC2)c1 [compound 20] | 12 | 34 | 100 | 26 | 47 | 106 | 106 | 105 |  |  |  |  | 
2 | CO/C=C(/C(=O)OC)c1ccccc1COc1cccc(C(OC)OC)c1 [compound 133] | 16 | 95 | 100 | 99 | 100 | 108 | 107 | 103 | 75 | 93 | 104 | 102 | 103
3 | C=CCCCCCCOc1cccc(OCc2ccccc2/C(=C\OC)C(=O)OC)c1 [compound 197] | 100 | 100 | 100 | 100 | 100 | 101 | 111 | 103 | 100 |  |  |  | 112
4 | CO/C=C(/C(=O)OC)c1ccccc1COc1cccc(C(F)CC(C)(F)F)c1 (stereo not shown) [compound 205] | 90 | 100 | 100 | 100 | 100 |  |  |  |  | 101 | 109 | 104 | 
5 | CO/C=C(/C(=O)OC)c1ccccc1COc1cccc(C(F)CC(C)=O)c1 (stereo not shown) [compound 206] | 35 | 100 | 100 | 100 | 100 |  |  |  | 97 | 102 | 102 | 108 | 
6 | CO/C=C(/C(=O)OC)c1ccccc1COc1cccc(OCC2CC2)c1 [compound 215] | 51 | 100 | 100 | 100 | 100 |  |  |  | 97 | 96 | 102 | 107 | 
7 | CO/C=C(/C(=O)OC)c1ccccc1COc1cccc(OCC=C(C)C)c1 [compound 217] | 94 | 100 | 100 | 100 | 100 |  |  |  |  | 90 | 96 | 107 | 
8 | CO/C=C(/C(=O)OC)c1ccccc1COc1cccc(OCC(C)C)c1 [compound 219] | 99 | 100 | 100 | 88 | 100 |  |  |  |  | 90 | 100 | 99 | 
9 | CCCCCCOc1cccc(OCc2ccccc2/C(=C\OC)C(=O)OC)c1 [compound 220] | 100 | 100 | 100 | 70 | 73 |  |  |  | 42 | 89 | 98 | 96 | 
10 | CCC(C)Oc1cccc(OCc2ccccc2/C(=C\OC)C(=O)OC)c1 (stereo not shown) [compound 221] | 39 | 100 | 100 | 100 | 100 |  |  |  | 94 | 96 | 96 | 99 | 
11 | CO/C=C(/C(=O)OC)c1ccccc1COc1cccc(OC2CCCC2)c1 [compound 222] | 69 | 100 | 100 | 100 | 100 |  |  |  | 100.0 | 97 | 108 | 101 | 
12 | CO/C=C(/C(=O)OC)c1ccc(Cl)cc1COc1ccc(OCC=C(C)C)cc1 [compound 269] | 97 | 100 | 100 | 100 | 100 | 81 | 94 | 88 | 100 |  |  |  | 
13 | CCCCCCOc1ccc(OCc2cc(Cl)ccc2/C(=C\OC)C(=O)OC)cc1 [compound 271] | 94 | 100 | 100 | 94 | 42 | 114 | 79 | 64 | 30 |  |  |  | 
14 | CCC(C)Oc1ccc(OCc2cc(F)ccc2/C(=C\OC)C(=O)OC)cc1 (stereo not shown) [compound 319] | 82 | 100 | 100 | 100 | 100 |  |  |  | 0 |  |  |  | 
